Laboratory results taken from patent US20170196859A1, “PHARMACEUTICAL COMPOSITION COMPRISING PYRAZINE CARBOXAMIDE COMPOUND AS ACTIVE INGREDIENT” (Astellas Pharma Inc., priority 2014, published 2017).

Experiments:
[1] = system: human acute myeloid leukemia cell line MV4-11 cells; test: Proliferation inhibition, MV4-11 cells (CellTiter-Glo); type: cell-based; conditions: MV4-11, 72 h, 3 days culture
Description: MV4-11 is a cell line originated from human acute myeloid leukemia and the BTK expression has been confirmed (Mol. Cell Proteomics. 2009; 8(7):1751-1764). The human acute myeloid leukemia cell line MV4-11 cells (American Type Culture Collection, CRL-9591) cultured in an Iscove's Modified Dulbecco's Medium (Sigma) contain […] 10% bovine serum were seeded into 96 well plates. On the next day, DMSO solution of the test compound B at final concentrations from 1 nM to 10 μM or only DMSO (DMSO group) were added thereto to culture the cells at 37° C. in 5% CO2 for 3 days. Thereafter, the cell number was measured using a cell counting reagent (CellTiter-Glo (registered trademark) Luminescent Cell Viability Assay (Promega)). The cell proliferation inhibition rate was calculated as the measured value in the DMSO group set as 0% inhibition and the measured value in the well only with the medium on which the cells have not been seeded set as 100% inhibition.

[2] = system: OCI-Ly10 subcutaneous xenograft; test: Anti-tumor evaluation in OCI-Ly10 subcutaneous xenograft mouse model; type: in vivo; conditions: for tumor volume after 14 days: control 188 to 520 mm^3
Description: The human diffuse large B-cell lymphoma cell line OCI-Ly10 cells were subcutaneously implanted to a dorsal part of an immunodeficient mouse (NOD.CB 17-Prkdc scid/J, male, 4-week-old (Charles River Laboratories Japan, Inc.)) to prepare an OCI-Ly10 subcutaneous xenograft mouse model. To mice which were divided based on the tumor volumes, 0.5% methylcellulose (control group: 10 mL/kg/day, QD, po (n=4)) or the test compound B (test compound B-administered group: 30 or 100 mg/kg/day in 0.5% methylcellulose suspension, QD, po (n=4)) were administered. The change in the tumor volume was evaluated over time.

[3] = system: human acute megakaryocytic leukemia cell line CMK cells; test: Proliferation inhibition, CMK cells (CellTiter-Glo); type: cell-based; conditions: 96 h, 4 days culture
Description: CMK is a cell line originated from human acute megakaryocytic leukemia and the activation of JAK 3 has been confirmed (Cancer Cell. 2006; 10:65-75). The human acute megakaryocytic leukemia cell line CMK cells (DSMZ, ACC392) cultured in RPMI1640 medium (Sigma) containing 20% bovine serum and 2 mM of glutamine were inoculated into 96 well plates. On the same day, DMSO solutions of the test compound B at final concentrations from 1 nM to 10 μM or only DMSO (DMSO group) were added thereto to culture the cells at 37° C. in 5% CO2 for 4 days. Thereafter, the cell number was measured using a cell counting reagent (CellTiter-Glo (registered trademark) Luminescent Cell Viability Assay (Promega)). The cell proliferation inhibition rate was calculated as the measured value in the DMSO group set as 0% inhibition and the measured value in the well only with the medium on which the cells have not been seeded set as 100% inhibition.

[4] = system: human diffuse large B-cell lymphoma cell line OCI-Ly10 cells; test: Proliferation inhibition, OCI-Ly10 cells (CellTiter-Glo); type: cell-based; conditions: OCI-Ly10, 72 h, 3 days culture, 100% inhibition = value on day of cell seeding
Description: OCI-Ly10 is a cell line originated from human diffuse large B-cell lymphoma, which is a B-cell malignant neoplasm, and the BTK dependency has been confirmed (Nature. 2010; 463:88-92). The human diffuse large B-cell lymphoma cell line OCI-Ly 10 cells (University Health Network) cultured in an Iscove's Modified Dulbecco's Medium (Sigma) containing a 20% bovine serum were seeded into 96 well plates. On the same day, DMSO solutions of the test compound B at a final concentrations from 0.1 nM to 1 μM or only DMSO (DMSO group) were added thereto to culture the cells at 37° C. in 5% CO2 for 3 days. Thereafter, the cell number was measured using a cell counting reagent (CellTiter-Glo (registered trademark) Luminescent Cell Viability Assay (Promega)). The cell proliferation inhibition rate was calculated by the measured value in the DMSO group set as 0% inhibition and the measured value in the DMSO group on day of cell seeding set as 100% inhibition.

[5] = system: human acute T cell lymphoma cell line Jurkat 6.1E cells; test: Proliferation inhibition, Jurkat 6.1E cells (CellTiter-Glo); type: cell-based; conditions: 96 h, 4 days culture
Description: Jurkat 6.1E is a cell line originated from human acute T cell lymphoma and the ITK expression has been confirmed (Mol. Pharmacol. 2012; 82:938-947). The human acute T cell lymphoma cell line Jurkat 6.1E cells (European Collection of Cell Cultures, 88042803) cultured in RPMI1640 medium (Sigma) containing 10% bovine serum were seeded into 96 well plates. On the same day, DMSO solutions of the test compound B at a final concentrations from 1 nM to 10 μM or only DMSO (DMSO group) were added thereto to culture the cells at 37° C. in 5% CO2 for 4 days. Thereafter, the cell number was measured using a cell counting reagent (CellTiter-Glo (registered trademark) Luminescent Cell Viability Assay (Promega)). The cell proliferation inhibition rate was calculated as the measured value in the DMSO group set as 0% inhibition and the measured value in the well only with the medium on which the cells have not been inoculated set 100% inhibition.

[6] = system: human anaplastic large cell lymphoma cell line SU-DHL-1 cells; test: Proliferation inhibition, SU-DHL-1 cells (CellTiter-Glo); type: cell-based; conditions: SU-DHL-1, 96 h, 4 days culture
Description: SU-DHL-1 is a cell line originated from human anaplastic large cell lymphoma and the activation of JAK 3 has been confirmed (Leukemia. 2014; 28:941-944). The human anaplastic large cell lymphoma cell line SU-DHL-1 cells (American Type Culture Collection, CRL-2955) cultured in RPMI1640 medium (Sigma) containing 10% bovine serum were seeded into 96 well plates. On the same day, DMSO solutions of the test compound B at a final concentrations from 1 nM to 10 μM or only DMSO (DMSO group) was added thereto to culture the cells at 37° C. in 5% CO2 for 4 days. Thereafter, the cell number was measured using a cell counting reagent (CellTiter-Glo (registered trademark) Luminescent Cell Viability Assay (Promega)). The cell proliferation inhibition rate was calculated as the measured value in the DMSO group set as 0% inhibition and the measured value in the well only with the medium on which the cells have not been seeded set as 100% inhibition.

IC50 [1]: 0.01 µM
IC50 [3]: 0.11 µM
IC50 [5]: 0.94 µM
IC50 [6]: 0.12 µM
SMILES: C=CC(=O)N1CC[C@@H](Oc2nc(Nc3ccc(N4CCC(N5CCN(C)CC5)CC4)cc3)c(C(N)=O)nc2CC)C1 [test compound B, 5-{[(3R)-1-acryloylpyrrolidin-3-yl]oxy}-6-ethyl-3-({4-[4-(4-methylpiperazin-1-yl)piperidin-1-yl]phenyl}amino)pyrazine-2-carboxamide monomethanesulfonate]
tumor volume after 14 days ([2]; 30 mg/kg/day QD po, 190 mm^3 at start of administration): 50 mm^3
tumor volume after 14 days ([2]; 100 mg/kg/day QD po, 184 mm^3 at start of administration): 22 mm^3
antitumor activity in OCI-Ly10 xenograft mouse model ([2]; summary statement, 30 and 100 mg/kg/day): remarkable antitumor activity with regression in a dose-dependent manner
GI50 [4]: 0.001 µM
